The values below are quoted from earlier work in US20110271957A1, “Delivery of estrogen and bioequivalents thereof via the pulmonary tract” (BATTELLE MEMORIAL INSTITUTE, priority 2010, published 2011).

The structures appear in SMILES notation.

For the series the following is noted: intranasal delivery route.

Consider `C[C@]12CC[C@@H]3c4ccc(O)cc4CC[C@H]3[C@@H]1CC[C@@H]2O` [estradiol, 17β-estradiol], for which the “bioavailability of administered estradiol” value is “about 25%”.
